Experimental data from ChEMBL document CHEMBL5260825, “Chemical Constituents of Bryophytes: Structures and Biological Activity” (J Nat Prod, 2018).
In brackets after ≈: the same amount, converted by molar mass. Several values for one entry are separate records, joined by “and”; a condition that tells them apart may be missing. Equal entries are not always repeated.

Assays:
[1] = Toxicity in brine shrimp assessed as lethality; conditions: artemia salina
[2] = system: Candida albicans; experiment: Antifungal activity against Candida albican ATCC10231 assessed as inhibition of fungal growth by measuring minimal inhibitory quantity by microdilution method; assay type: functional
[3] = system: Candida albicans; experiment: Antifungal activity against Candida albican ATCC10231 assessed as inhibition of fungal growth by microdilution method; assay type: functional
[4] = system: Trypanosoma brucei brucei; experiment: […] activity against Trypanosoma brucei brucei GUTat 3.1 assessed as inhibition of parasite growth measured after 72 hrs by alamar blue assay; assay type: functional, organism-based
[5] = target: DNA polymerase beta (Homo sapiens, UniProt P06746); experiment: Inhibition of DNA polymerase beta (unknown origin)
[6] = system: KB; experiment: Antiproliferative activity against human KB cells assessed as cell growth inhibition; assay type: functional, cell-based
[7] = system: Human immunodeficiency virus 1; experiment: Antiviral activity against HIV-1; assay type: functional, organism-based
[8] = target: Cyclooxygenase (Homo sapiens, UniProt P35354+P23219); experiment: Inhibition of COX (unknown origin); assay type: protein assay
[9] = system: Candida albicans; experiment: Antifungal activity against Candida albicans assessed as inhibition of fungal growth by MTT assay; assay type: functional
[10] = system: Cladosporium cucumerinum; experiment: Antifungal activity against Cladosporium cucumerinum assessed as inhibition of microbial growth by bioautographic TLC method; assay type: functional
[11] = system: Panel NCI-60 (60 carcinoma cell lines); experiment: Antiproliferative activity against human Panel NCI-60 (60 carcinoma cell lines) assessed as cell growth inhibition; assay type: functional
[12] = system: P388; experiment: Antiproliferative activity against mouse P388 cells assessed as cell growth inhibition; assay type: functional, cell-based
[13] = Antioxidant activity assessed as DPPH radical scavenging activity; assay type: functional
[14] = system: Staphylococcus aureus; experiment: Antibacterial activity against Staphylococcus aureus assessed as inhibition of bacterial growth by agar diffusion method; assay type: functional
[15] = system: Bacillus subtilis; experiment: Antibacterial activity against Bacillus subtilis assessed as inhibition of bacterial growth; assay type: functional
[16] = system: HL-60; experiment: Antiproliferative activity against human HL-60 cells assessed as cell growth inhibition; assay type: functional, cell-based
[17] = system: RAW264.7; experiment: Inhibition of LPS-induced NO production in mouse RAW264.7 cells incubated for 24 hrs by Griess reagent based assay; assay type: functional, cell-based; conditions: RAW264.7, 24 h
[18] = system: Trypanosoma brucei brucei; experiment: Antitrypanosomal activity against bloodstream Trypanosoma brucei brucei assessed as parasite growth inhibition measured after 72 hrs by alamar blue assay; assay type: functional, organism-based
[19] = target: T1, Polyunsaturated fatty acid 5-lipoxygenase (Homo sapiens) (UniProt P09917); experiment: Inhibition of ALOX5 (unknown origin) assessed as reduction in calmodulin level
T1 sequence (whole entry): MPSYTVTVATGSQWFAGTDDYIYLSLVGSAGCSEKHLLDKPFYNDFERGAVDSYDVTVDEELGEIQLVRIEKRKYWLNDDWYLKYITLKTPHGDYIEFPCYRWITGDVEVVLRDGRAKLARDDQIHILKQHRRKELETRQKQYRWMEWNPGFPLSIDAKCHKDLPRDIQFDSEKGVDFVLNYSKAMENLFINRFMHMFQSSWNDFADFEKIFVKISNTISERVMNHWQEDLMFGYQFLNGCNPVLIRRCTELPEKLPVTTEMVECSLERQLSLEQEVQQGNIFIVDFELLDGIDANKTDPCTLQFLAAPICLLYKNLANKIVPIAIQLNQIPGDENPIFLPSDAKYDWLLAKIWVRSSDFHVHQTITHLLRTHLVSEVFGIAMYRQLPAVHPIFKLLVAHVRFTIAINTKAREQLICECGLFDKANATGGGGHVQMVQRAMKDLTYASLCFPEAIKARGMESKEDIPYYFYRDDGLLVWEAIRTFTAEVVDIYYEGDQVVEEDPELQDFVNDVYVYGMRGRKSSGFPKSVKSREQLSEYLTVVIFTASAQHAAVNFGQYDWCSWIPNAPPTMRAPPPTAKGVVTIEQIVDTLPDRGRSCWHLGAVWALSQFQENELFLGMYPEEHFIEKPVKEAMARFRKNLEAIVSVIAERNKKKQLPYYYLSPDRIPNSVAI

[20] = system: Trichostrongylus colubriformis; experiment: Anthelmintic activity against third stage larvae of Trichostrongylus colubriformis by microscope based analysis; assay type: functional, organism-based
[21] = system: MCF7; experiment: Antiproliferative activity against human MCF7 cells assessed as cell growth inhibition; assay type: functional, cell-based
[22] = system: DU-145; experiment: Antiproliferative activity against human DU-145 cells assessed as cell growth inhibition; assay type: functional
[23] = Cytotoxicity against mouse 3T3 cells assessed as reduction in cell viability; assay type: toxicity, cell-based; conditions: NIH3T3 cells
[24] = system: M14; experiment: Antiproliferative activity against human M14 cells assessed as cell growth inhibition; assay type: functional
[25] = system: K562; experiment: Antiproliferative activity against human K562 cells assessed as cell growth inhibition; assay type: functional
[26] = system: HT-29; experiment: Antiproliferative activity against human HT-29 cells assessed as cell growth inhibition; assay type: functional, cell-based
[27] = Inhibition of superoxide anion radical release in rabbit polymorphonuclear leucocytes; assay type: functional, cell-based; conditions: Oryctolagus cuniculus, Polymorphonuclear neutrophil
[28] = system: Peritoneal macrophage cell; experiment: Inhibition of superoxide anion radical release in guinea pig peritoneal macrophages; assay type: functional, cell-based; conditions: Cavia porcellus
[29] = target: Cathepsin B (Homo sapiens) (UniProt P07858); experiment: Inhibition of Cathepsin B (unknown origin) at 0.00001 M relative to control; conditions: dose 10 µM
[30] = target: Procathepsin L (Homo sapiens) (UniProt P07711); experiment: Inhibition of Cathepsin L (unknown origin) at 0.00001 M relative to control; conditions: dose 10 µM
[31] = system: Zymoseptoria tritici; experiment: Antifungal activity against Zymoseptoria tritici assessed as inhibition of microbial growth by microtiter plate based analysis; assay type: functional, organism-based
[32] = system: Pyricularia oryzae; experiment: Antifungal activity against Pyricularia oryzae assessed as inhibition of microbial growth by microtiter plate based analysis; assay type: functional, organism-based
[33] = system: Botrytis cinerea; experiment: Antifungal activity against Botrytis cinerea assessed as inhibition of microbial growth by microtiter plate based analysis; assay type: functional, organism-based
[34] = system: Candida albicans; experiment: Antifungal activity against Candida albicans assessed as inhibition of fungal growth by MTT method; assay type: functional

Sequence of Procathepsin L (Homo sapiens) (P07711 114-333 limits assumed): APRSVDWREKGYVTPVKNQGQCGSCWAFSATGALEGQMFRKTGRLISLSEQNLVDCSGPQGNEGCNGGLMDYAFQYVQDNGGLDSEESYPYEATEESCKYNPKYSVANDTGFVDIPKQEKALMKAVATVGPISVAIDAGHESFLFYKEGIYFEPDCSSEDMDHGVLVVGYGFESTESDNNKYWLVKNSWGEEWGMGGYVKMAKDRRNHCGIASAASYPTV

## CC(=O)N1CCN(c2ccc(OCC3COC(Cn4ccnc4)(c4ccc(Cl)cc4Cl)O3)cc2)CC1 (stereo unspecified) [KETOCONAZOLE]
[1]
  LC50: 14.9 ppm

## Oc1ccc2c(c1)CCc1ccc(O)c(c1)Oc1ccc(cc1)CCc1cccc(c1)O2 [PTYCHANOL A]
[2]
  MIC: 0.25 µg
[3]
  MIC: 16 µg/mL

## NCCCC(N)(C(=O)O)C(F)F (stereo unspecified) [EFLORNITHINE]
[4]; GUTat 3.1, time 72 hrs, read-out: ED50 (the source's name)
  EC50: 2.27 µg/mL

## Oc1cc2cc(c1O)Oc1ccc(cc1)CCc1ccc(O)c(O)c1Oc1cccc(c1)CC2 [MARCHANTIN B]
[5]
  IC50: 14.4 µM
[6]
  IC50: 3.2 µM
[7]
  IC50: 5.3 µg/mL (≈ 11.6 µM)
[8]
  IC50: 55.9 µM
[9]
  MID: 4 µg/mL

## C=C1CC[C@@H]2[C@H]1[C@H]1OC(=O)C(=C)[C@@H]1CC[C@@]2(C)OC(C)=O
[10]
  MIC: 10 µg/mL

## C=C1C(=O)C2=C[C@H]1CCC(=O)[C@]1(C)CCCC(C)(C)[C@H]1C[C@H]2O
[11]
  GI50: 1.2 µM
[12]
  GI50: 0.1 µg/mL and 300 nM
  IC50: 0.06 µg/mL (≈ 0.19 µM)

## C=C1CC[C@H]2C(=C)CC[C@@H]3[C@H](OC(=O)[C@@H]3C)[C@@H]12
[10]
  MIC: 3 µg/mL

## Cc1cc(O)c(O)c([C@@]2(C)CCCC2(C)C)c1
[13]
  IC50: 1.9 µg/mL (≈ 8.11 µM)
[14]
  diameter of the inhibition zone (DIZ): 17 mm
[15]
  MIC: 2 µg/mL (≈ 8.53 µM)
[16]
  IC50: 1.4 µg/mL (≈ 5.97 µM)
[17]
  IC50: 4.1 µM

## C=C(C)[C@H]1Cc2c(CCc3ccccc3)cc(O)c(O)c2O1
[8]
  IC50: 26.2 µM
[18]
  IC50: 0.44 µg/mL (≈ 1.48 µM)
[19]
  ID50: 2 µg/mL (≈ 6.75 µM)

## Oc1cc2ccc1Oc1cccc(c1)CCc1ccc(cc1)Oc1cc(ccc1O)CC2
[2]
  MIC: 0.25 µg
[3]
  MIC: 16 µg/mL

## CC1(C)CCC[C@]2(C)[C@@H](C=O)C(C=O)=CC[C@@H]12 [POLYGODIAL]
[20]
  IC50: 70 µg/mL (≈ 299 µM)

## COc1ccc(CCc2c(Cl)ccc(O)c2Cl)cc1
[1]
  LC50: 0.42 ppm

## CC(=O)O[C@H]1OC=C(CO)[C@@H]2[C@@H]3[C@H](CC[C@@]4(CO4)[C@H]12)C3(C)C
[21]
  GI50: 9 µM
[22]
  GI50: 4.8 µM
[23]
  GI50: 3.8 µM
[24]
  GI50: 6.4 µM
[25]
  GI50: 8.7 µM
[26]
  GI50: 6.1 µM

## C=CC(=C)CC[C@]1(C)[C@H]2CCC=C(C)[C@]2(C)CC[C@H]1C(=O)O
[27]
  IC50: 0.07 µg/mL (≈ 0.231 µM)
[28]
  IC50: 25 µg/mL (≈ 82.7 µM)
[29]
  inhibition: 32%
[30]
  inhibition: 63%

## COc1cc([C@@]2(C)CCCC2(C)C)cc(O)c1C
[18]
  IC50: 0.93 µg/mL (≈ 3.74 µM)
[17]
  IC50: 4.1 µM

## Oc1ccc2c(c1)CCc1ccc(O)c(c1)-c1cc(cc(Cl)c1O)/C=C(/Cl)c1ccc-2c(O)c1
[31]
  IC50: 15.9 µg/mL
[32]
  IC50: 3.9 µg/mL
[33]
  IC50: 7.6 µg/mL

## COC(=O)c1c(C)cc(OC(=O)c2c(C)cc(O)c(C=O)c2O)c(C)c1O [ATRANORIN]
[34]
  MIC: 2 µg/mL (≈ 5.34 µM)

## COc1cc(/C=C/c2ccccc2)ccc1O
[20]
  IC50: 60 µg/mL (≈ 265 µM)

## Oc1ccc2c(c1)CCc1ccc(O)c(c1)-c1cc(ccc1O)CCc1ccc-2c(O)c1 [ISOPLAGIOCHIN D]
[31]
  IC50: 23.5 µg/mL
[32]
  IC50: 4 µg/mL

## CC1=CCC[C@]2(C)CC[C@@H](C(C)(C)O)C[C@@H]12
[4]; GUTat 3.1, 72 h, read-out: EC50
  EC50: 0.45 µM

## Oc1ccc2c(c1)CCc1ccc(O)c(c1)-c1cc(cc(Cl)c1O)CCc1ccc-2c(O)c1
[31]
  IC50: 4.5 µg/mL
[32]
  IC50: 2.6 µg/mL
[33]
  IC50: 18.9 µg/mL

## Oc1ccc2cc1Oc1ccc(cc1)CCc1cccc(c1)Oc1c(O)cccc1CC2
[29]
  inhibition: 93%
[30]
  inhibition: 95%
